Reference: the supplement of paper PMC10307832

How the values were obtained:
Assay in all cases: relative viability (nuclei count vs DMSO), 5 days (fraction); higher = more cells survive
[1] = compound: C1=CC2=NC=CN=C2C=C1/C=C/3\C(=O)NC(=O)S3 + Cc1cc(Nc2cc(N3CCN(C)CC3)nc(Sc3ccc(NC(=O)C4CC4)cc3)n2)n[nH]1 [Tozasertib] (partner 0.1 µM)
Summary of the method: (§1)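 Nuclei were stained with Hoechst during a one-step fixation (final 0.05% Triton X-100, 1% formaldehyde, 1 ug/ml Hoechst) carried out 5 days after dosing, then counted on 4× images. The cells, lung cancer lines in 1536-well plates, had been dosed by pin tool the day after seeding with one drug alone or a fixed anchor-drug dose plus five library-drug doses (not always all listed) in √10 steps. Relative viability is the nuclei count in treated wells divided by that in vehicle wells, and each value is the median of duplicate plates.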

[2] = compound: CCN1CCN(c2ccc(Nc3cc(N(C)C(=O)Nc4c(Cl)c(OC)cc(OC)c4Cl)ncn3)cc2)CC1 [BGJ398] + CC(C)C[C@H](NC(=O)[C@H](Cc1ccccc1)NC(=O)c1cnccn1)B(O)O [Bortezomib] (partner 0.002 µM)
Summary of the method: as §1

[3] = compound: C1=CC2=NC=CN=C2C=C1/C=C/3\C(=O)NC(=O)S3 + COc1cc2c(Oc3ccc(NC(=O)C4(C(=O)Nc5ccc(F)cc5)CC4)cc3F)ccnc2cc1OCCCN1CCOCC1 [Foretinib] (partner 0.25 µM)
Summary of the method: as §1

[4] = compound: CCN1CCN(c2ccc(Nc3cc(N(C)C(=O)Nc4c(Cl)c(OC)cc(OC)c4Cl)ncn3)cc2)CC1 [BGJ398] + C[C@@H](Oc1cc(-c2cnn(C3CCNCC3)c2)cnc1N)c1c(Cl)ccc(F)c1Cl [Crizotinib] (partner 1 µM)
Summary of the method: as §1

## UMC-11
[1]; first compound 0.02 µM
  relative viability: 0.205
[1]; first compound 0.06325 µM
  relative viability: 0.193
[1]; first compound 0.2 µM
  relative viability: 0.202
[1]; first compound 0.6325 µM
  relative viability: 0.203
[1]; first compound 2 µM
  relative viability: 0.192
[2]; first compound 0.01 µM
  relative viability: 0.759
[2]; first compound 0.03162 µM
  relative viability: 0.632
[2]; first compound 0.1 µM
  relative viability: 0.706
[2]; first compound 0.3162 µM
  relative viability: 0.661
[2]; first compound 1 µM
  relative viability: 0.475
[3]; first compound 0.02 µM
  relative viability: 1.03
[3]; first compound 0.06325 µM
  relative viability: 1.03
[3]; first compound 0.2 µM
  relative viability: 1.09
[3]; first compound 0.6325 µM
  relative viability: 0.964
[3]; first compound 2 µM
  relative viability: 1.11
[4]; first compound 0.01 µM
  relative viability: 0.507
[4]; first compound 0.03162 µM
  relative viability: 0.585
[4]; first compound 0.1 µM
  relative viability: 0.539
[4]; first compound 0.3162 µM
  relative viability: 0.579
[4]; first compound 1 µM
  relative viability: 0.53
